{"source": "PubChem BioAssay (NCI)", "experiment_in_all_cases": "NCI-60 cell line screen, 48 h", "key": {"[1]": {"test_system": "KM20L2 colon"}, "[2]": {"test_system": "RXF-631 renal"}, "[3]": {"test_system": "SNB-78 CNS"}, "[4]": {"test_system": "XF 498 CNS"}, "[5]": {"test_system": "M19-MEL melanoma"}}, "note": "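The compound was tested at five concentrations on cells cultured in 96-well plates, with a 48-hour exposure period. The concentration for 50% growth inhibition is given as GI50. Definition used: TGI = concentration required for complete inhibition of growth.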", "data": [{"smiles": "COC1C2c3ccccc3C(C#N)(Cc3ccc4c(c32)OCO4)N1C(=O)c1ccccc1", "note": "(centres undefined)", "values": [{"measurement": "TGI", "setting": "[1]", "value": "> 100", "unit": "µM"}, {"measurement": "TGI", "setting": "[2]", "value": "> 100", "unit": "µM"}, {"measurement": "TGI", "setting": "[3]", "value": "> 100", "unit": "µM"}, {"measurement": "TGI", "setting": "[4]", "value": 98.1, "unit": "µM"}]}, {"smiles": "C=C1C(=O)C23C(O)C1CCC2C12CO[C@]3(O)[C@@H](O)C1C(C)(C)CCC2O", "note": "(some centres undefined)", "values": [{"measurement": "TGI", "setting": "[1]", "value": 30.5, "unit": "µM"}, {"measurement": "TGI", "setting": "[5]", "value": 23.7, "unit": "µM"}, {"measurement": "TGI", "setting": "[2]", "value": 34.5, "unit": "µM"}, {"measurement": "TGI", "setting": "[3]", "value": 32.8, "unit": "µM"}, {"measurement": "TGI", "setting": "[4]", "value": 5.24, "unit": "µM"}]}, {"smiles": "C[CH2][Sn]([CH2]C)([O]C(=O)c1cc(OC)c(OC)c(OC)c1)[O][Sn]([CH2]C)([CH2]C)[O]C(=O)c1cc(OC)c(OC)c(OC)c1", "values": [{"measurement": "GI50", "setting": "[1]", "value": 64.6, "unit": "µM"}, {"measurement": "TGI", "setting": "[1]", "value": "> 100", "unit": "µM"}, {"measurement": "GI50", "setting": "[5]", "value": 31.3, "unit": "µM"}, {"measurement": "TGI", "setting": "[5]", "value": "> 100", "unit": "µM"}, {"measurement": "GI50", "setting": "[2]", "value": 24.5, "unit": "µM"}, {"measurement": "TGI", "setting": "[2]", "value": 53.7, "unit": "µM"}, {"measurement": "GI50", "setting": "[3]", "value": 17, "unit": "µM"}, {"measurement": "TGI", "setting": "[3]", "value": 41, "unit": "µM"}, {"measurement": "GI50", "setting": "[4]", "value": 16.9, "unit": "µM"}, {"measurement": "TGI", "setting": "[4]", "value": 31.3, "unit": "µM"}]}, {"smiles": "CC1=C(C(=O)Nc2cc(F)c(F)cc2F)C(c2cccc([N+](=O)[O-])c2)C(C(=O)Nc2ccccc2C(F)(F)F)=C(C)N1", "note": "(centres undefined)", "values": [{"measurement": "TGI", "setting": "[1]", "value": 78.4, "unit": "µM"}, {"measurement": "TGI", "setting": "[5]", "value": 91.5, "unit": "µM"}, {"measurement": "TGI", "setting": "[2]", "value": 49.3, "unit": "µM"}, {"measurement": "TGI", "setting": "[3]", "value": 59.2, "unit": "µM"}]}, {"smiles": "COc1ccc(Nc2nc3c(N)cc(C(F)(F)F)cc3nc2-c2ccccc2)cc1", "values": [{"measurement": "TGI", "setting": "[1]", "value": "> 100", "unit": "µM"}, {"measurement": "TGI", "setting": "[5]", "value": "> 100", "unit": "µM"}, {"measurement": "TGI", "setting": "[2]", "value": "> 100", "unit": "µM"}, {"measurement": "TGI", "setting": "[3]", "value": "> 100", "unit": "µM"}, {"measurement": "TGI", "setting": "[4]", "value": "> 100", "unit": "µM"}]}, {"smiles": "Cc1ccc(S(=O)(=O)OC(C=O)C(O)C(O)COC(c2ccccc2)(c2ccccc2)c2ccccc2)cc1", "note": "(centres undefined)", "values": [{"measurement": "TGI", "setting": "[1]", "value": 27.4, "unit": "µM"}, {"measurement": "TGI", "setting": "[5]", "value": 26.1, "unit": "µM"}, {"measurement": "TGI", "setting": "[2]", "value": 10.5, "unit": "µM"}, {"measurement": "TGI", "setting": "[4]", "value": 29.2, "unit": "µM"}]}, {"smiles": "CCN1N=CSC12C(=O)N(c1ccccc1)C(=O)N2c1ccccc1", "note": "(centres undefined)", "values": [{"measurement": "TGI", "setting": "[1]", "value": "> 100", "unit": "µM"}, {"measurement": "TGI", "setting": "[2]", "value": "> 100", "unit": "µM"}, {"measurement": "TGI", "setting": "[3]", "value": "> 100", "unit": "µM"}, {"measurement": "TGI", "setting": "[4]", "value": "> 100", "unit": "µM"}]}, {"smiles": "COc1ccc(C=O)c(N(C)C(=O)C(C)(C)C)c1", "values": [{"measurement": "TGI", "setting": "[1]", "value": "> 100", "unit": "µM"}, {"measurement": "TGI", "setting": "[5]", "value": "> 100", "unit": "µM"}, {"measurement": "TGI", "setting": "[2]", "value": "> 100", "unit": "µM"}, {"measurement": "TGI", "setting": "[3]", "value": "> 100", "unit": "µM"}, {"measurement": "TGI", "setting": "[4]", "value": "> 100", "unit": "µM"}]}, {"smiles": "COC(=O)C1(c2ccc(OC)cc2)NC(c2ccccc2)C2C(=O)N(c3ccc(OC)cc3)C(=O)C21", "note": "(centres undefined)", "values": [{"measurement": "TGI", "setting": "[1]", "value": "> 100", "unit": "µM"}, {"measurement": "TGI", "setting": "[2]", "value": "> 100", "unit": "µM"}, {"measurement": "TGI", "setting": "[3]", "value": "> 100", "unit": "µM"}, {"measurement": "TGI", "setting": "[4]", "value": "> 100", "unit": "µM"}]}, {"smiles": "O=C1/C(=C/c2ccccc2Cl)COc2ccccc21", "values": [{"measurement": "TGI", "setting": "[1]", "value": 38.1, "unit": "µM"}, {"measurement": "TGI", "setting": "[5]", "value": 34.2, "unit": "µM"}, {"measurement": "TGI", "setting": "[2]", "value": 36.3, "unit": "µM"}, {"measurement": "TGI", "setting": "[3]", "value": 41.3, "unit": "µM"}, {"measurement": "TGI", "setting": "[4]", "value": 29.2, "unit": "µM"}]}, {"smiles": "Nc1ncn([C@@H]2C=C(CO)C(O)C2O)c(=O)n1", "note": "(some centres undefined)", "values": [{"measurement": "TGI", "setting": "[1]", "value": "> 100", "unit": "µM"}, {"measurement": "TGI", "setting": "[5]", "value": "> 100", "unit": "µM"}, {"measurement": "TGI", "setting": "[2]", "value": "> 100", "unit": "µM"}, {"measurement": "TGI", "setting": "[3]", "value": "> 100", "unit": "µM"}, {"measurement": "TGI", "setting": "[4]", "value": "> 100", "unit": "µM"}]}, {"smiles": "COc1ccc(C(=O)Nc2ccccc2)cc1[N+](=O)[O-]", "values": [{"measurement": "TGI", "setting": "[1]", "value": "> 100", "unit": "µM"}, {"measurement": "TGI", "setting": "[5]", "value": "> 100", "unit": "µM"}, {"measurement": "TGI", "setting": "[2]", "value": "> 100", "unit": "µM"}, {"measurement": "TGI", "setting": "[3]", "value": "> 100", "unit": "µM"}, {"measurement": "TGI", "setting": "[4]", "value": "> 100", "unit": "µM"}]}, {"smiles": "Nc1cc2c3c(cccc3c1)C(=O)N(CCN1CCN(CCN3C(=O)c4cccc5cc(N)cc(c45)C3=O)CC1)C2=O", "values": [{"measurement": "TGI", "setting": "[1]", "value": "> 100", "unit": "µM"}, {"measurement": "TGI", "setting": "[5]", "value": "> 100", "unit": "µM"}, {"measurement": "TGI", "setting": "[2]", "value": "> 100", "unit": "µM"}, {"measurement": "TGI", "setting": "[4]", "value": "> 100", "unit": "µM"}]}]}
